In US12692246B2, “Solid form of a bradykinin B2-receptor antagonist” (PHARVARIS GMBH, priority 2021, dated 2026):

Tests used:
Type in all cases: physicochemical
[1] = Slow evaporative crystallisation trials (solubility observed in solvents)
Protocol: Into crystallisation tubes (5 ml vol) was charged 20 mg of amorphous (S)—N-(1-deutero-1-(3-chloro-5-fluoro-2-((2-methyl-4-(1-methyl-1H-1,2,4-triazol-5-yl)quinolin-8-yloxy)methyl)phenyl)ethyl)-2-(difluoromethoxy)acetamide. A total of 26 solvents or solvent mixtures were charged to the tubes and the solids agitated over a period of 48 hours at RT and cooled to 0° C.
Slow evaporative crystallisation trials were continued by transferring samples to smaller tapered tubes without agitation and needle bleeds fitted. Slow evaporative crystallisation was attempted with scratching at various points to help induce crystallisation.
Following two weeks, liquors remained in most cases with no evidence of crystallisation. At this point heteronuclear seeding was attempted with a very similar crystalline API source. This had no impact upon the results. The majority of test cases returned clear glasses.

[2] = Mixed solvent cooling crystallization trials (solubility in six solvents); conditions: 200 mg amorphous material; MeOH, MeCN, MEK, THF, EtOAc, TBME; solutions at 0.5 vol., 25° C., ca. 66 hours equilibration
Protocol: Amorphous (S)—N-(1-deutero-1-(3-chloro-5-fluoro-2-((2-methyl-4-(1-methyl-1H-1,2,4-triazol-5-yl)quinolin-8-yloxy)methyl)phenyl)ethyl)-2-(difluoromethoxy)acetamide, 6×200 mg, was weighed into crystallisation tubes and charged with solvents (MeOH, MeCN, MEK, THE, EtOAc and TBME) in 0.05 ml (0.25 vol.) aliquots at 25° C. […] Additional solvent (made up to 0.5 vol.) yielded thick yellow solutions. The solutions were equilibrated at 25° C. for ca. 66 hours though this had no impact on the yellow solutions.
Additional solvent was charged to each API solution up to 1 ml (5 vol.) and the solutions were heated to 40° C. and clarified. Heptane was charged in 50 μL aliquots to each solution before cooling to 25° C. over 1 hour. The volume charged and observations at 40 and 25° C. are detailed in Table 3.

[3] = Gravimetric Vapour Sorption (GVS); conditions: 25° C.
Protocol: Sorption isotherms were obtained using a Hiden Isochema moisture sorption analyser (model IGAsorp), controlled by IGAsorp Systems Software V6.50.48. The sample was maintained at a constant temperature (25° C.) by the instrument controls. The humidity was controlled by mixing streams of dry and wet nitrogen, with a total flow of 250 ml.min^−1. The instrument was verified for relative humidity content by measuring three calibrated Rotronic salt solutions (10-50-88%). The weight change of the sample was monitored as a function of humidity by a microbalance (accuracy+/−0.005 mg). A defined amount of sample was placed in a tared mesh stainless steel basket under ambient conditions. A full experimental cycle typically consisted of three scans (sorption, desorption and sorption) at a constant temperature (25° C.) and 10% RH intervals over a 0-90% range (60 minutes for each humidity level).

solubility in solvents ([1]; 20 mg amorphous material, 26 solvents or solvent mixtures, agitated 48 hours at RT and cooled to 0° C., in the majority of solvents) | solubility in solvents (continued trials) ([1]; continued slow evaporation without agitation, scratching, heteronuclear seeding, 3 weeks) | solubility in the 6 solvents investigated [2] | GVS overall weight change ([3]; between 0 and 90% RH) | GVS hysteresis ([3]; between 10 and 80% RH) | Compound
extreme solubility | extreme solubility | high solubility |  |  | [2H][C@@](C)(NC(=O)COC(F)F)c1cc(F)cc(Cl)c1COc1cccc2c(-c3ncnn3C)cc(C)nc12 [(S)—N-(1-deutero-1-(3-chloro-5-fluoro-2-((2-methyl-4-(1-methyl-1H-1,2,4-triazol-5-yl)quinolin-8-yloxy)methyl)phenyl)ethyl)-2-(difluoromethoxy)acetamide]
 |  |  | ca. 1.9 wt % | 0.2-0.4 wt % | [2H][C@@](C)(NC(=O)COC(F)F)c1cc(F)cc(Cl)c1COc1cccc2c(-c3ncnn3C)cc(C)nc12 [Form A, (S)—N-(1-deutero-1-(3-chloro-5-fluoro-2-((2-methyl-4-(1-methyl-1H-1,2,4-triazol-5-yl)quinolin-8-yloxy)methyl)phenyl)ethyl)-2-(difluoromethoxy)acetamide monohydrate]
